Reference: ChEMBL document CHEMBL5120854, “Discovery of Natural Ursane-type SENP1 Inhibitors and the Platinum Resistance Reversal Activity Against Human Ovarian Cancer Cells: A Structure-Activity Relationship Study” (J Nat Prod, 2022)
pIC50: −log10 of the molar value. The source made the active and inactive calls. No cut-off for these calls is given here.

Key:
[1] = target: T1, Sentrin-specific protease 1 (Homo sapiens) (UniProt Q9P0U3); experiment: Inhibition of recombinant human SENP1 assessed as reduction in deSUMOylation of RanGAP1-SUMO1 at 5 uM using RanGAP1-SUMO1 as substrate preincubated for 10 mins followed by substrate addition and measured after 30 mins relative to control; settings: time 40.0 min
T1 sequence (whole entry): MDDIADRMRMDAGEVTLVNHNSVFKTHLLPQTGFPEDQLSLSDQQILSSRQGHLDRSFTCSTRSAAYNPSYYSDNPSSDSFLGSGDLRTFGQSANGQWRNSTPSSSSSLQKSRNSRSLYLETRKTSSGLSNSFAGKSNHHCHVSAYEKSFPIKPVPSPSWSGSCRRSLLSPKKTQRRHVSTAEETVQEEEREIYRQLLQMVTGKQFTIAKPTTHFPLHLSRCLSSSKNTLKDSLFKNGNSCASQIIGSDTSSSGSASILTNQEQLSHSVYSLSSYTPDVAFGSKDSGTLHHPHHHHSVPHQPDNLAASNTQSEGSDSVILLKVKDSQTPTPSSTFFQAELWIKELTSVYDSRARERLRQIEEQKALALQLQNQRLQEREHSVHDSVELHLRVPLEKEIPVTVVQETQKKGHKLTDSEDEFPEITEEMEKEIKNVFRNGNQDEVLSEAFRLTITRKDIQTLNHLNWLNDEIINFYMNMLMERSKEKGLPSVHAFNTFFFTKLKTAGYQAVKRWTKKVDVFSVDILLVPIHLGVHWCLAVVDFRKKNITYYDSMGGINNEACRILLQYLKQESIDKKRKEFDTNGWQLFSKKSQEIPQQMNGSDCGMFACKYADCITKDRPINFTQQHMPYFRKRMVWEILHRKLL

SK-OV-3 [2] = experiment: Cytotoxicity against human SK-OV-3 cells assessed as reduction in cell viability at 25 uM incubated for 48 hrs by SRB assay; type: functional, cell-based
SK-OV-3 [3] = experiment: Cytotoxicity against human SK-OV-3 cells assessed as reduction in cell viability incubated for 48 hrs by SRB assay; type: functional, cell-based; settings: SK-OV-3, 48 h
SK-OV-3 [4] = experiment: Reversal of platinum resistance in cisplatin-resistant human SK-OV-3 cells assessed as reduction in cisplatin IC50 after 48 hrs in presence of cisplatin by SRB assay (reference value: 28.23 microM); type: functional, cell-based; settings: SK-OV-3, 48 h
[5] = target: T1, Sentrin-specific protease 1 (Homo sapiens); experiment: (§1) Inhibition of recombinant human SENP1 assessed as reduction in deSUMOylation using RanGAP1-SUMO1 as substrate preincubated for 10 mins followed by substrate addition and measured after 30 mins; settings: time 40.0 min, DDE = dose-dependent effect
[6] = target: T2, Sentrin-specific protease 1 (Homo sapiens, UniProt Q9P0U3); experiment: as §1
T2 sequence (Q9P0U3 whole entry): T1 sequence (whole entry)

[7] = target: T1, Sentrin-specific protease 1 (Homo sapiens); experiment: Inhibition of SENP1 in human SK-OV-3 cells assessed as increase in SUMOlytated JAK2 level at 5 uM after 48 hrs by immunoprecipitation method; type: cell-based
SK-OV-3 [8] = experiment: Cytotoxicity against human SK-OV-3 cells assessed as cell viability at 500 uM incubated for 48 hrs by SRB assay; type: functional; settings: read-out: Activity
SK-OV-3 [9] = experiment: Synergistic reversal of platinum resistance in cisplatin-resistant human SK-OV-3 cells assessed as combination index after 48 hrs in presence of cisplatin by SRB assay; type: functional

Row | inhibition [1] | SMILES | also measured
1 | 5.5% | C=C(C)[C@@H]1CC[C@]2(C)[C@H](CC=C3[C@@H]4[C@@H](C)[C@H](C)CC[C@]4(C)CC[C@]32C)[C@@]1(C)CCC(=O)O | –
2 | 78.4% | C[C@@H]1CC[C@]2(C(=O)O)CC[C@]3(C)C(=CC[C@@H]4[C@@]5(C)[C@H](O)[C@@H](O)[C@H](O)C(C)(C)[C@@H]5CC[C@]43C)[C@@H]2[C@]1(C)O | –
3 | 66.6% | C[C@@H]1CC[C@]2(C(=O)O)CC[C@]3(C)C(=CC[C@@H]4[C@@]5(C)C[C@@H](O)[C@@H](O)C(C)(C)[C@@H]5CC[C@]43C)[C@@H]2[C@]1(C)O | –
4 | 19.9% | C[C@@H]1CC[C@]2(C(=O)O)CC[C@]3(C)C(=CC[C@@H]4[C@@]5(C)CC[C@@H](O)[C@](C)(CO)[C@@H]5CC[C@]43C)[C@@H]2[C@]1(C)O | –
5 | 65.5% | C[C@@H]1[C@H]2C3=CC[C@@H]4[C@@]5(C)CC[C@@H](O)C(C)(C)[C@@H]5CC[C@@]4(C)[C@]3(C)CC[C@@]2(C)[C@@H](O)C[C@H]1C(=O)O | –
6 | 1.7% | C[C@@H]1CC[C@]2(C(=O)O)CC[C@]3(C)C(=CC[C@@H]4[C@@]5(C)C[C@H](O)[C@H](O)C(C)(C)[C@@H]5CC[C@]43C)[C@@H]2[C@]1(C)O | –
7 | 3.2% | C[C@@H]1CC[C@]2(C(=O)O)CC[C@]3(C)C(=CC[C@@H]4[C@@]5(C)CC[C@H](O)C(C)(C)[C@@H]5[C@H](O)C[C@]43C)[C@@H]2[C@]1(C)O | –
8 | 3.9% | C[C@H]1[C@H](C)CC[C@]2(C)CC[C@]3(C)C(=CC[C@@H]4[C@@]5(C)CC[C@@H](O)[C@](C)(C(=O)O)[C@@H]5CC[C@]43C)[C@H]12 | –
9 | 34.4% | C[C@H]1[C@H](C)CC[C@]2(C(=O)O)CC[C@]3(C)C(=CC[C@@H]4[C@@]5(C)C[C@@H](O)[C@H](O)C(C)(C)[C@@H]5CC[C@]43C)[C@H]12 [COROSOLIC ACID] | Activity (SK-OV-3 [2]): Active; pIC50 (SK-OV-3 [3]): 4.98; pIC50 (SK-OV-3 [4]): 4.58
10 | 87.6% | C[C@H]1[C@H](C)CC[C@]2(C(=O)O)CC[C@]3(C)C(=CC[C@@H]4[C@@]5(C)CC[C@H](O)C(C)(C)[C@@H]5CC[C@]43C)[C@H]12 | –
11 | 8.4% | C[C@H]1[C@H](C)CC[C@]2(C(=O)O)CC[C@]3(C)C(=CC[C@@H]4[C@@]5(C)CC[C@@H](O)C(C)(C)[C@@H]5CC[C@]43C)[C@H]12 | –
12 | 69.2% | C[C@@H]1[C@H]2C3=CC[C@@H]4[C@@]5(C)CC[C@H](O)C(C)(C)[C@@H]5CC[C@@]4(C)[C@]3(C)CC[C@@]2(C)CC[C@H]1C(=O)O | –
13 | 1.9% | C[C@@H]1CC[C@]2(C(=O)O)CC[C@]3(C)C(=CC[C@@H]4[C@@]5(C)[C@H](O)C(=O)[C@H](O)C(C)(C)[C@@H]5CC[C@]43C)[C@@H]2[C@]1(C)O | –
14 | 8.9% | C[C@H]1[C@H](C)CC[C@]2(C)CC[C@]3(C)C(=CC(=O)[C@@H]4[C@@]5(C)CC[C@@H](O)[C@](C)(C(=O)O)[C@@H]5CC[C@]43C)[C@H]12 | –
15 | 6.6% | C[C@H]1[C@H](C)CC[C@]2(C(=O)O)CC[C@]3(C)C(=CC[C@@H]4[C@@]5(C)C[C@@H](O)[C@H](O)[C@@](C)(CO)[C@@H]5CC[C@]43C)[C@H]12 | –
16 | 0.5% | C[C@@H]1CC[C@]2(C(=O)O)CC[C@]3(C)C(=CC[C@@H]4[C@@]5(C)CC[C@H](O)[C@@](C)(CO)[C@@H]5[C@H](O)C[C@]43C)[C@@H]2[C@]1(C)O | –
17 | 6% | C[C@@H]1CC[C@]2(C(=O)O)CC[C@]3(C)C(=CC[C@@H]4[C@@]5(C)C=C(O)C(=O)C(C)(C)[C@@H]5CC[C@]43C)[C@@H]2[C@]1(C)O | –
18 | 58.4% | C[C@H]1[C@H](C)CC[C@]2(CO)CC[C@]3(C)C(=CC[C@@H]4[C@@]5(C)CC[C@H](O)C(C)(C)[C@@H]5CC[C@]43C)[C@H]12 | –
19 | – | CC1(C)CC[C@]2(C(=O)O)[C@H](O)C[C@]3(C)C(=CC[C@@H]4[C@@]5(C)CC[C@H](O)C(C)(C)[C@@H]5CC[C@]43C)[C@@H]2C1 | pIC50 (SK-OV-3 [3]): 4.02; pIC50 (SK-OV-3 [4]): 4.67
20 | > 100% | C[C@@H]1CC[C@]2(C(=O)O)CC[C@]3(C)C(=CC[C@@H]4[C@@]5(C)C[C@@H](O)[C@H](O)C(C)(C)[C@@H]5CC[C@]43C)[C@@H]2[C@]1(C)O [TOMENTIC ACID] | inhibition [5]: Dde; pIC50 [6]: 5.37; inhibition [7]: Active; pIC50 (SK-OV-3 [3]): 4.63; viability at 500 µM (SK-OV-3 [8]): > 25%; pIC50 (SK-OV-3 [4]): 5.62; CI (SK-OV-3 [9]): 0.3
21 | > 100% | C[C@@H]1CC[C@]2(C(=O)O)CC[C@]3(C)C(=CC[C@@H]4[C@@]5(C)CC[C@H](O)C(C)(C)[C@@H]5CC[C@]43C)[C@@H]2[C@]1(C)O [POMOLIC ACID] | inhibition [5]: Dde; pIC50 [6]: 5.29; inhibition [7]: Active; pIC50 (SK-OV-3 [3]): 4.29; viability at 500 µM (SK-OV-3 [8]): > 25%; pIC50 (SK-OV-3 [4]): 5.43; CI (SK-OV-3 [9]): 0.23
